Data reported in patent US20040097502A1, “Pyrazoles as tgf inhibitors” (priority 2001, published 2004).

Assays:
[1] = tested on: TGF-β signaling (PAI-1 promoter linked to firefly luciferase in HepG2 cells); assay: Assay 1: PAI-1 promoter luciferase reporter assay in HepG2 cells after exposure to TGF-β; format: cell-based; details: for IC50: Homo sapiens, HepG2 cells, PAI-1 promoter-luciferase, 1 ng/mL rhTGFβ-1, read-out: IC50 value in Assay 1 (inhibition of TGF-β induced firefly luciferase activity)
Procedure: The assay was performed in HepG2 cells stably transfected with the PAI-1 promoter (known to be a strong TGF-β responsive promoter) linked to a luciferase (firefly) reporter gene. The compounds were selected on their ability to inhibit luciferase activity after exposure to TGF-β. In addition cells were transfected with a second luciferase (Renilla) gene which was not driven by a TGF-β responsive promoter and was used as a toxicity control.
(96 well-)microplates are seeded, using a multidrop apparatus, with the stably transfected cell line at a concentration of 35000 cells per well in 200 μl of serum-containing medium. These plates are placed in a cell incubator.
18 to 24 hours later (Day 2), cell-incubation procedure is launched. Cells are incubated with TGF-β and a candidate compound at concentrations in the range 50 nM to 10 μM (final concentration of DMSO 1%). The final concentration of TGF-β (rhTGFβ-1) used in the test is 1 ng/mL. Cells are incubated with a candidate compound 15-30 mins prior to the addition of TGF-β. The final volume of the test reaction is 150 μl. Each well contains only one candidate compound and its effect on the PAI-1 promoter is monitored.
Columns 11 and 12 are employed as controls. Column 11 contains 8 wells in which the cells are incubated in the presence of TGF-β, without a candidate compound. Column 11 is used to determine the ‘reference TGF-β induced firefly luciferase value’ against which values measured in the test wells (to quantify inhibitory activity) may be compared. In wells A12 to D12, cells are grown in medium without TGF-β. The firefly luciferase values obtained from these positions are representive of the ‘basal firefly luciferase activity’. In wells E12 to H12, cells are incubated in the presence of TGF-β and 500 μM CPO (Cyclopentenone, Sigma), a cell toxic compound.
12 to 18 hours later (day 3), the luciferase quantification procedure is launched. The following reactions are performed using reagents obtained from a Dual Luciferase Assay Kit (Promega). Cells are washed and lysed with the addition of 10 μl of passive lysis buffer (Promega). Following agitation (15 to 30 mins), luciferase activities of the plates are read in a dual-injector luminometer (BMG lumistar). For this purpose, 50 μl of luciferase assay reagent and 50 μl of ‘Stop & Glo’ buffer are injected sequentially to quantify the activities of both luciferases. The mean Luciferase activity value obtained in wells A11 to H11 (Column 11, TGF-β only) is considered to represent 100% and values obtained in wells A12 to D12 (cells in medium alone) give a basal level (0%). For each of the compounds tested, a concentration response curve is constructed from which an IC50 value can be determined graphically.

Row | melting point [°C] | IC50 [1] [µM] | SMILES | firefly and renilla luciferase activities (toxicity control) ([1]; 500 μM CPO in the presence of TGF-β, % of those obtained in column 11 (TGF-β only))
1 | – | – | O=C1C=CCC1 [CPO, Cyclopentenone, reference compound] | around 50%
2 | 216 | ≤ 5 | Clc1ccc(Nc2cc(-c3c[nH]nc3-c3ccccn3)ccn2)cc1 [Example 1] | –
3 | 200 | ≤ 5 | Fc1ccc(Nc2cc(-c3c[nH]nc3-c3ccccn3)ccn2)cc1 [Example 3] | –
4 | 200 | ≤ 5 | c1ccc(-c2n[nH]cc2-c2ccnc(NCc3ccco3)c2)nc1 [Example 4] | –
5 | 146 | ≤ 5 | CS(=O)(=O)c1cccc(Nc2cc(-c3c[nH]nc3-c3ccccn3)ccn2)c1 [Example 5] | –
6 | 228 | ≤ 5 | N#Cc1cccc(Nc2cc(-c3c[nH]nc3-c3ccccn3)ccn2)c1 [Example 6] | –
7 | 280 | ≤ 5 | COc1cc(Nc2cc(-c3c[nH]nc3-c3ccccn3)ccn2)ccc1C#N [Example 7] | –
8 | 115 | ≤ 5 | c1ccc(-c2n[nH]cc2-c2ccnc(Nc3cccc(OCCN4CCCCC4)c3)c2)nc1 [Example 8] | –
9 | 141 | ≤ 5 | c1ccc(-c2n[nH]cc2-c2ccnc(Nc3cccc(OCCN4CCCC4)c3)c2)nc1 [Example 9] | –
10 | 205 | ≤ 5 | Clc1cccc(Nc2cc(-c3c[nH]nc3-c3ccccn3)ccn2)c1 [Example 10] | –
11 | 194 | ≤ 5 | Cc1cccc(Nc2cc(-c3c[nH]nc3-c3ccccn3)ccn2)c1 [Example 11, [4-(3-Pyridin-2-yl-1H-pyrazol-4-yl)-pyridin-2-yl]-m-tolyl-amine] | –
12 | 224 | ≤ 5 | c1ccc(-c2n[nH]cc2-c2ccnc(Nc3ccc(OCCN4CCCC4)cc3)c2)nc1 [Example 12, [4-(3-Pyridin-2-yl-1H-pyrazol-4-yl)-pyridin-2-yl]-[4-(2-pyrrolidin-1-yl-ethoxy)-phenyl]-amine] | –
13 | 210 | ≤ 5 | COc1ccc(Nc2cc(-c3c[nH]nc3-c3ccccn3)ccn2)cc1OC [Example 13, (3,4-Dimethoxy-phenyl)-[4-(3-pyridin-2-yl-1H-pyrazol-4-yl)-pyridin-2-yl]-amine] | –
14 | 212 | ≤ 5 | Cc1cc(Nc2cc(-c3c[nH]nc3-c3ccccn3)ccn2)ccc1Cl [Example 14, (4-Chloro-3-methyl-phenyl)-[4-(3-pyridin-2-yl-1H-pyrazol-4-yl)-pyridin-2-yl]-amine] | –
15 | 250 | ≤ 5 | N#Cc1cc(Nc2cc(-c3c[nH]nc3-c3ccccn3)ccn2)ccc1Cl [Example 15, 2-Chloro-5-[4-(3-pyridin-2-yl-1H-pyrazol-4-yl)-pyridin-2-ylamino]-benzonitrile] | –
16 | 268 | ≤ 5 | Oc1ccc(Nc2cc(-c3c[nH]nc3-c3ccccn3)ccn2)cc1 [Example 16, 4-[4-(3-Pyridin-2-yl-1H-pyrazol-4-yl)-pyridin-2-ylamino]-phenol] | –
17 | 219 | ≤ 5 | COc1ccc(Nc2cc(-c3c[nH]nc3-c3ccccn3)ccn2)cc1 [Example 17, (4-Methoxy-phenyl)-[4-(3-pyridin-2-yl-1H-pyrazol-4-yl)-pyridin-2-yl]-amine] | –
18 | 221 | ≤ 5 | Cc1ccc(Nc2cc(-c3c[nH]nc3-c3ccccn3)ccn2)cc1 [Example 18, [4-(3-Pyridin-2-yl-1H-pyrazol-4-yl)-pyridin-2-yl]-p-tolyl-amine] | –
19 | 102.8 | ≤ 5 | FC(F)(F)Oc1cccc(Nc2cc(-c3c[nH]nc3-c3ccccn3)ccn2)c1 [Example 19, [4-(3-Pyridin-2-yl-1H-pyrazol-4-yl)-pyridin-2-yl]-(3-trifluoromethoxy-phenyl)-amine] | –
20 | 220 | ≤ 5 | Cc1ccc(Nc2cc(-c3c[nH]nc3-c3ccccn3)ccn2)cc1C [Example 20, (3,4-Dimethyl-phenyl)-[4-(3-pyridin-2-yl-1H-pyrazol-4-yl)-pyridin-2-yl]-amine] | –
21 | 207 | ≤ 5 | FC(F)(F)c1ccc(Nc2cc(-c3c[nH]nc3-c3ccccn3)ccn2)cc1 [Example 21, [4-(3-Pyridin-2-yl-1H-pyrazol-4-yl)-pyridin-2-yl]-(4-trifluoromethyl-phenyl)-amine] | –
22 | 218 | ≤ 5 | CC(C)Oc1cccc(Nc2cc(-c3c[nH]nc3-c3ccccn3)ccn2)c1 [Example 22, (3-Isopropoxy-phenyl)-[4-(3-pyridin-2-yl-1H-pyrazol-4-yl)-pyridin-2-yl]-amine] | –
23 | 134 | ≤ 5 | CS(=O)(=O)c1ccc(Nc2cc(-c3c[nH]nc3-c3ccccn3)ccn2)cc1 [Example 23, (4-Methanesulfonyl-phenyl)-[4-(3-pyridin-2-yl-1H-pyrazol-4-yl)-pyridin-2-yl]-amine] | –
24 | 125 | ≤ 5 | COc1cc(Nc2cc(-c3c[nH]nc3-c3cccc(C)n3)ccn2)ccc1C#N [Example 24, 2-Methoxy-4-{4-[3-(6-methyl-pyridin-2-yl)-1H-pyrazol-4-yl]-pyridin-2-ylamino}-benzonitrile] | –
25 | 240 | ≤ 5 | O=C(c1ccc(Nc2cc(-c3c[nH]nc3-c3ccccn3)ccn2)cc1)N1CCOCC1 [Example 25, Morpholin-4-yl-{4-[4-(3-pyridin-2-yl-1H-pyrazol-4-yl)-pyridin-2-ylamino]-phenyl}methanone] | –
26 | 200 | ≤ 5 | CN1CCN(C(=O)c2ccc(Nc3cc(-c4c[nH]nc4-c4ccccn4)ccn3)cc2)CC1 [Example 26, (4-Methyl-piperazin-1-yl)-{4-[4-(3-pyridin-2-yl-1H-pyrazol-4-yl)-pyridin-2-ylamino]-phenyl}-methanone] | –
27 | 176 | ≤ 5 | c1ccc(-c2n[nH]cc2-c2ccnc(Nc3ccc(OCCN4CCCCC4)cc3)c2)nc1 [Example 27, [4-(2-Piperidin-1-yl-ethoxy)phenyl]-[4-(3-pyridin-2-yl-1H-pyrazol-4-yl)-pyridin-2-yl]-amine] | –
28 | 120 | ≤ 5 | Cn1ccnc1COc1cccc(Nc2cc(-c3c[nH]nc3-c3ccccn3)ccn2)c1 [Example 28, [3-(1-Methyl-1H-imidazol-2-ylmethoxy)-phenyl]-[4-(3-pyridin-2-yl-1H-pyrazol-4-yl)-pyridin-2-yl]-amine] | –
